In publication PMC10950972, “Relative bioavailability of fedratinib through various alternative oral administration methods in healthy adults” (Cancer Chemotherapy and Pharmacology, 2023):
Read-outs that look alike come from different tables or passages of the source.

Columns and labels:
[1] = Phase 1 relative bioavailability study part 1: plasma pharmacokinetics of fedratinib (2-period crossover); assay type: in vivo, human; conditions: for AUC(0-t) / AUC(0-inf) / Cmax / Tmax / half-life: human, plasma, po, 400 mg; for half-life: read-out: t½, mean (SD) (converted)
Description: Study part 1 was a 2-period, 2-sequence, open-label, crossover design (Fig. 1A). Treatment 1A (reference) consisted of fedratinib 400 mg (4 × 100-mg capsules) administered orally along with approximately 180 mL of a commercially available nutritional supplement (ie, Ensure Plus). Treatment 1B (test) consisted of fedratinib 400 mg dispersed in a nutritional supplement and administered orally. Participants were randomized to receive treatment in one of the following sequences: 1A–1B or 1B–1A. […] No food or beverages (except water and any nutritional supplement administered with the treatment) were allowed for at least 4 h after dosing.
Approximately 1 h before each fedratinib administration, ondansetron oral tablet (film coated) 8 mg was given orally to reduce the potential for fedratinib-related nausea and vomiting. There was a washout period of at least 12 days between each dose of fedratinib. The duration from screening through the follow-up phone call was approximately 10 weeks. Participants resided at the clinical site from days -1 to 23 (study part 1), or days -1 to 35 (study part 2). If a participant discontinued from the study for any reason, an early termination visit was performed, with only the safety assessments scheduled for the day of discharge taking place. Additionally, each participant who discontinued also received a follow-up phone call 4 (± 2) days after completion of the early termination visit.
For study part 1, and part 2 treatments 2A and 2B, blood samples were collected pre-dose (0 h) and at 0.5, 1, 1.5, 2, 3, 4, 6, 8, 12, 24, 48, 72, 120, 168, 192, and 240 h post-dose. For treatment 2C, blood samples were collected pre-dose (0 h) and at 0.5, 1, 1.5, 2, 3, 4, 6, 8, 12, 12.5, 13, 13.5, 14, 15, 16, 18, 24, 48, 72, 120, 168, 192, and 240 h post-dose of the first dose. The plasma concentration of fedratinib was measured using a validated liquid chromatography-tandem mass spectrometry assay with a lower limit of quantification of 1.00 ng/mL [12, 20].
Plasma PK parameters were calculated using noncompartmental methods by a validated PK analysis program (Phoenix® WinNonlin®, v8.3.4 [Certara USA, Inc., Princeton, NJ, USA]) using actual times. The PK parameters determined for fedratinib Cmax, Tmax, AUC from time 0 to the time of the last quantifiable concentration (AUC0–t), AUC from time 0 to infinity (AUC0–∞), and t½. Additionally for treatment 2C, Cmax and Tmax were estimated after both the first dose (Cmax and Tmax) and the second dose (Cmax2 and Tmax2). AUC0–t and AUC0–∞ were estimated from time 0 (the first dose) through 240 h after the first dose. AUC parameters were calculated using the linear-log trapezoidal method.
The sample size for this study was based on consideration of the precision in the comparison of PK parameters, represented by the 90% confidence interval (CI) of the geometric mean ratios of Cmax and AUC of fedratinib. […] Only participants with valid PK data were included in the summary statistics and statistical analysis.
To compare the PK parameters and estimated relative bioavailability of fedratinib following different administration methods in each study part (treatment 1B to 1A, and treatment 2B and 2C to 2A), a linear mixed-effect model with treatment, period, and sequence as fixed effects and participant nested within sequence as a random effect was fitted to the natural log-transformed PK parameters (Cmax, AUC0–t, and AUC0–∞) for use in estimation of effects and construction of CIs.
In study parts 1 and 2, point estimates and 90% CI for the difference between test and reference treatments was exponentiated, and the ratio of geometric means (test/reference) and associated 90% CI was presented on the original scale. For comparison of treatment 2C to 2A in study part 2, the relative bioavailability assessment was based on only AUC. For Tmax, the difference between test and reference was assessed for significance using Wilcoxon signed-rank test. […]

[2] = tested on: healthy adults; assay: Safety assessment (adverse events) in the phase 1 study; assay type: in vivo, human
Description: Participants were monitored for adverse events (AEs) during the study, including assessments for clinical symptoms, biochemical, hematologic, and urinalysis laboratory results, physical examinations, 12-lead electrocardiograms, and vital signs. AEs were assessed for seriousness, severity, and relationship to the drug. AEs were assigned to the last study treatment administered at the time of onset, starting during or after the administration of the first dose. AEs that occurred after discharge were assigned to the last study treatment received for up to 30 days after the last dose of fedratinib.

[3] = tested on: patients with myelofibrosis; conditions: cited from earlier work
[4] = Treatment 1B vs 1A (dispersed oral vs intact capsules), linear mixed-effect model

## Cc1cnc(Nc2ccc(OCCN3CCCC3)cc2)nc1Nc1cccc(S(=O)(=O)NC(C)(C)C)c1 [fedratinib]
[1]; [4]
  AUC0–∞ geometric mean ratio (90% CI): 1.009 (0.939–1.085)
  Cmax geometric mean ratio (90% CI): 1.059 (0.969–1.157)
[1]; Treatment 1A: single 400 mg oral, 4 × 100-mg intact capsules with nutritional supplement, n = 27, read-out: AUC0–t, geometric mean (Geo. %CV)
  AUC(0-t): 20000 ng·h/mL
[1]; Treatment 1A: single 400 mg oral, 4 × 100-mg intact capsules with nutritional supplement, n = 27, read-out: AUC0–∞, geometric mean (Geo. %CV)
  AUC(0-inf): 22100 ng·h/mL
[1]; Treatment 1A: single 400 mg oral, 4 × 100-mg intact capsules with nutritional supplement, n = 27, read-out: Cmax, geometric mean (Geo. %CV)
  Cmax: 1320 ng/mL
[1]; Treatment 1A: single 400 mg oral, 4 × 100-mg intact capsules with nutritional supplement, n = 27, read-out: Tmax, median (range)
  Tmax: 2.1 h
[1]; Treatment 1A: single 400 mg oral, 4 × 100-mg intact capsules with nutritional supplement, n = 27
  half-life: 4.29 days
[1]; Treatment 1A: single 400 mg oral, intact capsules with nutritional supplement, n = 27, read-out: AUC0–t, geometric mean (statistical analysis)
  AUC(0-t): 20400 ng·h/mL
[1]; Treatment 1A: single 400 mg oral, intact capsules with nutritional supplement, n = 27, read-out: AUC0–∞, geometric mean (statistical analysis)
  AUC(0-inf): 22500 ng·h/mL
[1]; Treatment 1A: single 400 mg oral, intact capsules with nutritional supplement, n = 27, read-out: Cmax, geometric mean (statistical analysis)
  Cmax: 1350 ng/mL
[1]; Treatment 1A: single 400 mg oral, intact capsules with nutritional supplement, n = 27, read-out: Tmax, median (statistical analysis)
  Tmax: 2.57 h
[1]; Treatment 1B: single 400 mg oral, capsule contents dispersed in nutritional supplement, n = 26, read-out: AUC0–t, geometric mean (Geo. %CV)
  AUC(0-t): 20500 ng·h/mL
[1]; Treatment 1B: single 400 mg oral, capsule contents dispersed in nutritional supplement, n = 26, read-out: AUC0–t, geometric mean (statistical analysis)
  AUC(0-t): 20500 ng·h/mL
[1]; Treatment 1B: single 400 mg oral, capsule contents dispersed in nutritional supplement, n = 26, read-out: AUC0–∞, geometric mean (Geo. %CV)
  AUC(0-inf): 22700 ng·h/mL
[1]; Treatment 1B: single 400 mg oral, capsule contents dispersed in nutritional supplement, n = 26, read-out: AUC0–∞, geometric mean (statistical analysis)
  AUC(0-inf): 22700 ng·h/mL
[1]; Treatment 1B: single 400 mg oral, capsule contents dispersed in nutritional supplement, n = 26, read-out: Cmax, geometric mean (Geo. %CV)
  Cmax: 1430 ng/mL
[1]; Treatment 1B: single 400 mg oral, capsule contents dispersed in nutritional supplement, n = 26, read-out: Cmax, geometric mean (statistical analysis)
  Cmax: 1430 ng/mL
[1]; Treatment 1B: single 400 mg oral, capsule contents dispersed in nutritional supplement, n = 26, read-out: Tmax, median (statistical analysis)
  Tmax: 2 h
[1]; Treatment 1B: single 400 mg oral, capsule contents dispersed in nutritional supplement, n = 26
  half-life: 4.11 days
[2]; during the study, all treatments
  Deaths or serious/severe AEs: no deaths or serious/severe AEs were reported
[2]; human, in vivo
  AE constipation, participants: 12.1%
  AE diarrhea, participants: 10.3%
  AE somnolence, participants: 10.3%
  Moderate AEs reported (number of AEs): 4
  Participants discontinued due to AEs: 3 participants
  Participants with at least 1 AE: 65.5%
[3]; FREEDOM study
  Patients who experienced nausea: 39.5%
[3]; JAKARTA trial
  Patients who experienced nausea: 62%
